Experiments:
Assay type in all cases: cell-based
[1] = system: human PBM cells; test: Cellular toxicity assay, PBM cells
Method: (§1) The toxicity of the compounds was assessed in Vero, human PBM, CEM (human lymphoblastoid), MT-2, and HepG2 cells, as described previously (see Schinazi R. F., Sommadossi J.-P., Saalmann V., Cannon D. L., Xie M.-Y., Hart G. C., Smith G. A. & Hahn E. F. Antimicrob. Agents Chemother. 1990, 34, 1061-67). Cycloheximide was included as positive cytotoxic control, and untreated cells exposed to solvent were included as negative controls. The cytotoxicity IC50 was obtained from the concentration-response curve using the median effective method described previously (see Chou T.-C. & Talalay P. Adv. Enzyme Regul. 1984, 22, 27-55; Belen'kii M. S. & Schinazi R. F. Antiviral Res. 1994, 25, 1-11).

[2] = system: Vero cells; test: Cellular toxicity assay, Vero cells
Method: as §1

[3] = system: CEM (human lymphoblastoid) cells; test: Cellular toxicity assay, CEM cells
Method: as §1

SMILES	Toxicities (μM) PBM [1]	Toxicities (μM) VERO [2]	Toxicities (μM) CEM [3]
COC(=O)N[C@H](C(=O)N1C[C@@H](n2cc(COC(C)=O)nn2)C[C@H]1c1ncc(-c2ccc(-c3ccc(-c4cnc([C@@H]5C[C@H](n6cc(COC(C)=O)nn6)CN5C(=O)[C@@H](NC(=O)OC)C(C)C)[nH]4)cc3)cc2)[nH]1)C(C)C	53 µM	≥100 µM	13.5 µM
COC(=O)N[C@H](C(=O)N1C[C@@H](SC)C[C@H]1c1ncc(-c2ccc(-c3ccc(-c4cnc([C@@H]5C[C@H](SC)CN5C(=O)[C@@H](NC(=O)OC)C(C)C)[nH]4)cc3)cc2)[nH]1)C(C)C	15.6 µM	10.9 µM	13.3 µM
COC(=O)N[C@H](C(=O)N1C[C@H](n2cc([Si](C)(C)C)nn2)C[C@H]1c1ncc(-c2ccc(-c3ccc(-c4cnc([C@@H]5C[C@@H](n6cc([Si](C)(C)C)nn6)CN5C(=O)[C@@H](NC(=O)OC)C(C)C)[nH]4)cc3)cc2)[nH]1)C(C)C	>100 µM	>100 µM	25.2 µM
COC(=O)N[C@H](C(=O)N1C[C@H](n2cc(-c3ccccc3)nn2)C[C@H]1c1ncc(-c2ccc(-c3ccc(-c4cnc([C@@H]5C[C@@H](n6cc(-c7ccccc7)nn6)CN5C(=O)[C@@H](NC(=O)OC)C(C)C)[nH]4)cc3)cc2)[nH]1)C(C)C	>100 µM	>100 µM	>100 µM
COC(=O)N[C@H](C(=O)N1C[C@@H](n2cc(C(=O)OC)nn2)C[C@H]1c1ncc(-c2ccc(-c3ccc(-c4cnc([C@@H]5C[C@H](n6cc(C(=O)OC)nn6)CN5C(=O)[C@@H](NC(=O)OC)C(C)C)[nH]4)cc3)cc2)[nH]1)C(C)C	53 µM	≥100 µM	13.5 µM
COC(=O)N[C@H](C(=O)N1C[C@H](n2ccnn2)C[C@H]1c1ncc(-c2ccc(-c3ccc(-c4cnc([C@@H]5C[C@@H](n6cc([Si](C)(C)C)nn6)CN5C(=O)[C@@H](NC(=O)OC)C(C)C)[nH]4)cc3)cc2)[nH]1)C(C)C	3 µM	>100 µM	16.2 µM

— US9932326B2, “Potent and selective inhibitors of hepatitis C virus” (Cocrystal Pharma, LLC, priority 2010, dated 2018)
